Data from patent US10905118B2, “Triscationic amphiphile compounds, compositions, and methods for making same” (James Madison Innovations, Inc., priority 2014, dated 2021).
In brackets after ≈: the same amount, converted by molar mass.

Columns and labels:
[1] = Isothermal titration calorimetry: critical aggregation concentration and thermodynamics of aggregation; type: physicochemical; details: ITC, 37° C.
Protocol: Isothermal titration calorimetry (ITC) was used to determine the critical aggregation concentration (CAC) and the thermodynamic parameters at 37° C. associated with aggregate formation for each double-tailed amphiphile for the M-P and M-1 series, as shown in Table 1.
A Nano ITC was used to measure the heat change associated with the deaggregation of amphiphiles via power compensation. A concentrated aqueous solution of amphiphile (>>CAC) was titrated into a thermally controlled sample cell, initially containing pure water, in a series of discrete injections. Isothermal titration calorimetry was used to determine the critical aggregation concentration (CAC) and ΔHagg. Shown in FIG. 5 is the heat rate associated with each injection versus time for 9 (M-1,14,14). Shown in FIG. 6 is the integration of the heat per injection normalized by the number of moles of each injection versus the increasing concentration of amphiphile in the well. In FIG. 6, inset, CAC is determined by calculating the first derivative the heat curve.
During initial injections (Range I), measured heat changes are due to both the dilution of aggregates and deaggregation. This can be observed in the first 10 injections, where aggregates absorbed heat and disassociated into dissolved monomers. The heat change produced by each injection was approximately constant in this range. In Range II, injected aggregates don't fully dissociate, reducing the total absorbed heat for each subsequent injection. At concentrations well above the CAC (Range III), absorbed heat is attributed only to the dilution of aggregates and is approximately constant. […] CAC and thermodynamic data were not determined for the amphiphiles with the shortest tails [1 (M-P,8,8) and 6 (M-1,8,8)] because the heat evolved during injection was […] the threshold of the instrument.
The difference between the average heat of injections in Range I, representing the total heat due to the dilution of aggregates and deaggregation, and the average heat of injections in Range III, representing the heat due solely to the dilution of aggregates, gives the heat of deaggregation, ΔHdeagg. The ΔHdeagg for compound 9 (M-1,14,14) is 37 kJ/mol, corresponding to a heat of aggregate formation, ΔHagg, of −37 kJ/mol (ΔHagg=−ΔHdeagg).
The ΔGagg can be approximated for the aggregation of nonionic amphiphiles by the equation: ΔGagg=RT ln(CAC/55.5) (3)
where m is the concentration of counterions that associate with a aggregate and n is the number of monomers that associate to form an aggregate. […] BBA-Biomembranes. 2000, 1508, 69-85.)
The entropy of aggregation (ΔSagg) is dictated by a combination of entropic factors that favor or disfavor aggregate formation and can be approximated using the Gibbs-Helmholtz equation: ΔGagg=ΔHagg−TΔSagg (5)
CAC and ΔHagg were determined using a Nano-ITC (TA-Instruments). Prior to each experiment the sample cell was washed with dH2O (300 mL), ethanol (100 mL), dH2O (300 mL) and nanopure water (200 mL). Next, 950 μL of nanopure water was added to the sample cell. A concentrated aqueous solution (>>CAC) of amphiphile was prepared and equilibrated at 37° C. A 250 μL syringe was filled with the aqueous solution, and loaded into the Nano ITC. Multiple single injections in aliquots of 5 μL were injected into the sample cell with time intervals varying from 300 s to 1400 s. Samples were continuously stirred (300 rpm) throughout the titration. The Nano-Analyze program (TA-Instruments) was used to analyze the data. CAC and ΔHagg values reported are the average of two or more repeat experiments for each amphiphile.

Bacillus cereus = assay: Minimum inhibitory concentration, B. cereus; type: cell-based; details: Mueller-Hinton Broth, 37° C., 72 h
Protocol: (§1) The MIC values of all compounds from both double-tailed series were determined for four Gram-positive (Staphylococcus aureus, Enterococcus faecalis, Streptococcus agalactiae, and Bacillus cereus) and two Gram-negative (Escherichia coli and Pseudomonas aeruginosa) strains, which are shown in Table 3.
(§2) The Gram-positive bacterial strains used tested were Staphylococcus aureus subsp. aureus ATCC® 29213™, Enterococcus faecalis ATCC® 29212™, Bacillus cereus, and Streptococcus agalactiae J48.^58 The Gram-negative bacterial strains used were Escherichia coli ATCC® 25922™ and Pseudomonas aeruginosa ATCC® 27853™. All strains were grown in 1× Mueller-Hinton Broth at 37° C. for 12-24 h. For the MIC and combination studies, bacterial suspensions were prepared by diluting overnight cultures to 5×10^6 CFU/mL in 2× Mueller-Hinton Broth, so that when amphiphile solutions are added the final broth strength is 1×.
(§3) The methods used to determine the MIC and MBC were performed as previously described and followed the standards set forth by the Clinical and Laboratory Standards Institute (See Ladow, J. E.; Warnock, D. C.; Hamill, K. M.; Simmons, K. L.; Davis, R. W.; Schwantes, C. R.; Flaherty, D. C.; Willcox, J. A. L.; Wilson-Henjum, K.; Caran, K. L.; Minbiole, K. P. C.; Seifert, K. Bicephalic amphiphile architecture affects antibacterial activity. Eur. J. Med. Chem. 2011, 46, 4219-4226 and P. A. Wayne Methods for dilution antimicrobial tests for bacteria that grow aerobically. 2009.). Briefly, compounds were serially diluted and 100 μL of each dilution were added to the wells of a 96-well flat-bottomed microtiter plate in triplicate. After adding 100 μL of the bacterial cell suspension, the plates were incubated at 37° C. for 72 h. […] The MIC was considered to be bactericidal if the MBC was the same concentration or one concentration higher in the dilution series as the MIC, per Motyl, M.; Dorso, K.; Barrett, J.; Giacobbe, R. Basic microbiological techniques used in antibacterial drug discovery. Curr. Protoc. Pharmacol. 2006, Chapter 13.

Enterococcus faecalis = assay: Minimum inhibitory concentration, E. faecalis; type: cell-based, Enterococcus faecalis ATCC 29212; details: Mueller-Hinton Broth, 37° C., 72 h
Protocol: as §1, §2, §3

Streptococcus agalactiae = assay: Minimum inhibitory concentration, S. agalactiae; type: cell-based, Streptococcus agalactiae J48; details: Mueller-Hinton Broth, 37° C., 72 h
Protocol: as §1, §2, §3

Staphylococcus aureus = assay: Minimum inhibitory concentration, S. aureus; type: cell-based, Staphylococcus aureus subsp. aureus ATCC 29213; details: Mueller-Hinton Broth, 37° C., 72 h
Protocol: as §1, §2, §3

Escherichia coli = assay: Minimum inhibitory concentration, E. coli; type: cell-based, Escherichia coli ATCC 25922; details: Mueller-Hinton Broth, 37° C., 72 h
Protocol: as §1, §2, §3

Pseudomonas aeruginosa [2] = assay: Minimum inhibitory concentration, P. aeruginosa; type: cell-based, Pseudomonas aeruginosa ATCC 27853; details: Mueller-Hinton Broth, 37° C., 72 h
Protocol: as §1, §2, §3

[3] = Isothermal titration calorimetry: critical aggregation concentration and thermodynamics of aggregation; type: physicochemical; details: 37° C., single-tailed M-1,1,n series; for CAC: ITC
Pseudomonas aeruginosa [4] = details: literature comparison values; cited from earlier work

Row | Compound | ΔHagg [1] | MIC B. cereus (G+) (Bacillus cereus) | MIC E. faecalis (G+) (Enterococcus faecalis) | MIC S. agalactiae (G+) (Streptococcus agalactiae) | MIC S. aureus (G+) (Staphylococcus aureus) | MIC E. coli (G−) (Escherichia coli) | MIC P. aeruginosa (G−) (Pseudomonas aeruginosa [2]) | ΔGagg [3] | −TΔSagg [3] | CAC [3] | MIC against P. aeruginosa (comparison drugs) (Pseudomonas aeruginosa [4])
1 | CCCCCCCCCCCCCCCCCC[N+](C)(C)Cc1cc(C[N+](C)(C)C)cc(C[N+](C)(C)C)c1.[Br-].[Br-].[Br-] [Compound S6] | -5.26 kcal/mol | 4 µM | 4 µM | 2 µM | 16 µM | 16 µM | 125 µM | -5.74 kcal/mol | -0.574 kcal/mol | 5.0 mM | –
2 | CCCCCCCCCCCCCCCCCCCCCC[N+](C)(C)Cc1cc(C[N+](C)(C)C)cc(C[N+](C)(C)C)c1.[Br-].[Br-].[Br-] [Compound S8] | -7.89 kcal/mol | >250 µM | >250 µM | >250 µM | >250 µM | 63 µM | >250 µM | -6.69 kcal/mol | 1.22 kcal/mol | 0.99 mM | –
3 | NC[C@H]1O[C@H](O[C@H]2[C@H](O)[C@@H](O[C@H]3O[C@H](CO)[C@@H](O)[C@H](N)[C@H]3O)[C@H](N)C[C@@H]2N)[C@H](N)C[C@@H]1O [tobramycin] | – | – | – | – | – | – | – | – | – | – | 6.4 µM (≈ 2.99 µg/mL)
